In this assay the target is T1, active p38 alpha enzyme (Upstate Biotechnology) (Homo sapiens, UniProt Q16539).
T1 construct: purchased Upstate Biotechnology
The assay can be described thus: p38α biochemical assay (ATP turnover, luminescent detection, Cambrex PKlight). Conditions: p38α biochemical assay, Table 1 Biological Activity. The method, boiled down: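 In this kinase reaction, p38α used MapkapK2 as phosphorylation substrate at low ATP (1.4 uM final) over 2 hours at 30C, and activity was followed as ATP turnover by luminescence.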

Molecules are shown by their SMILES. Where only a bound is given, the exact number is not on record here.

T1 sequence (Q16539 whole entry): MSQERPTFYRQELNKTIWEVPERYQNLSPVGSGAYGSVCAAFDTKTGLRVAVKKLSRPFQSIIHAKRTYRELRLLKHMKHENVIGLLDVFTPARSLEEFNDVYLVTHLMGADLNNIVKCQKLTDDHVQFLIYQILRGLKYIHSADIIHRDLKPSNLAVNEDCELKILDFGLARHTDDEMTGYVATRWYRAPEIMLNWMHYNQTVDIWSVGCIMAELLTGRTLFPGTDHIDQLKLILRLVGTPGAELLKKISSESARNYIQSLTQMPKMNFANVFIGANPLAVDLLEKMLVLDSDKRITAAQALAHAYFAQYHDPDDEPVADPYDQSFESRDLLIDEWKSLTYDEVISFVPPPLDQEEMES

`CC(C)NC(=O)c1csc(-c2oc(CN3CCN(C(=O)c4csc5ccccc45)CC3)nc2-c2ccc(F)cc2)n1` [Example 443] registered a 50% inhibitory concentration (IC50) above 1000 nM.

Compound `CC(C)NC(=O)c1csc(-c2oc(CN3CCN(C(=O)c4cc5ccccc5s4)CC3)nc2-c2ccc(F)cc2)n1` [Example 444] displayed an IC50 above 1000 nM.

On to `CCCCc1ccc(C(=O)N2CCN(Cc3nc(-c4ccc(F)cc4)c(-c4nc(C(=O)NC(C)C)cs4)o3)CC2)cc1` [Example 445], for which the IC50 is above 1000 nM.

As to `CC(C)NC(=O)c1csc(-c2oc(CN3CCN(C(=O)c4ccc(C(C)(C)C)cc4)CC3)nc2-c2ccc(F)cc2)n1` [Example 446], the IC50 is above 1000 nM.

For the compound `CC(C)NC(=O)c1csc(-c2oc(CN3CCN(C(=O)c4ccc(N(C)C=O)cc4)CC3)nc2-c2ccc(F)cc2)n1` [Example 447], the concentration for half-maximal inhibition (IC50) is at most 1000 nM.

Take `CC(=O)Nc1cccc(C(=O)N2CCN(Cc3nc(-c4ccc(F)cc4)c(-c4nc(C(=O)NC(C)C)cs4)o3)CC2)c1` [Example 448]: the IC50 was at most 1000 nM.

For `CC(C)NC(=O)c1csc(-c2oc(CN3CCN(C(=O)COc4ccccc4C=O)CC3)nc2-c2ccc(F)cc2)n1` [Example 449], the IC50 was above 1000 nM.

Compound `CC(=O)Oc1ccc(C(=O)N2CCN(Cc3nc(-c4ccc(F)cc4)c(-c4nc(C(=O)NC(C)C)cs4)o3)CC2)cc1` [Example 450] yielded an IC50 above 1000 nM.

`COC(=O)c1ccc(C(=O)N2CCN(Cc3nc(-c4ccc(F)cc4)c(-c4nc(C(=O)NC(C)C)cs4)o3)CC2)cc1` [Example 451] returned an IC50 above 1000 nM.

`CC(=O)Oc1cccc(C(=O)N2CCN(Cc3nc(-c4ccc(F)cc4)c(-c4nc(C(=O)NC(C)C)cs4)o3)CC2)c1` [Example 452] displayed an IC50 of at most 1000 nM.

`CC(=O)Oc1ccccc1C(=O)N1CCN(Cc2nc(-c3ccc(F)cc3)c(-c3nc(C(=O)NC(C)C)cs3)o2)CC1` [Example 453] returned an IC50 above 1000 nM.

The compound `CC(C)NC(=O)c1csc(-c2oc(CN3CCN(C(=O)Cc4ccc5c(c4)OCO5)CC3)nc2-c2ccc(F)cc2)n1` [Example 454] displayed an IC50 above 1000 nM.

`CCCOc1ccc(C(=O)N2CCN(Cc3nc(-c4ccc(F)cc4)c(-c4nc(C(=O)NC(C)C)cs4)o3)CC2)cc1` [Example 455] showed an IC50 above 1000 nM.

`CC(C)NC(=O)c1csc(-c2oc(CN3CCN(C(=O)c4ccc(OC(C)C)cc4)CC3)nc2-c2ccc(F)cc2)n1` [Example 456] returned a 50% inhibitory concentration (IC50) of at most 1000 nM.

In the case of `Cc1cccc([N+](=O)[O-])c1C(=O)N1CCN(Cc2nc(-c3ccc(F)cc3)c(-c3nc(C(=O)NC(C)C)cs3)o2)CC1` [Example 457], the IC50 is at most 1000 nM.

Turning to `Cc1cccc(C(=O)N2CCN(Cc3nc(-c4ccc(F)cc4)c(-c4nc(C(=O)NC(C)C)cs4)o3)CC2)c1[N+](=O)[O-]` [Example 458], the half-inhibitory concentration (IC50) is above 1000 nM.

As for `Cc1ccc([N+](=O)[O-])c(C(=O)N2CCN(Cc3nc(-c4ccc(F)cc4)c(-c4nc(C(=O)NC(C)C)cs4)o3)CC2)c1` [Example 459], the IC50 was above 1000 nM.

`Cc1c(C(=O)N2CCN(Cc3nc(-c4ccc(F)cc4)c(-c4nc(C(=O)NC(C)C)cs4)o3)CC2)cccc1[N+](=O)[O-]` [Example 460]: the half-maximal inhibitory concentration (IC50) is above 1000 nM.

In turn, `COc1ccc(OC)c(C(=O)N2CCN(Cc3nc(-c4ccc(F)cc4)c(-c4nc(C(=O)NC(C)C)cs4)o3)CC2)c1` [Example 461] displayed an IC50 above 1000 nM.

Compound `COc1ccc(C(=O)N2CCN(Cc3nc(-c4ccc(F)cc4)c(-c4nc(C(=O)NC(C)C)cs4)o3)CC2)c(OC)c1` [Example 462] came in with an IC50 of at most 1000 nM.

For the compound `COc1cccc(OC)c1C(=O)N1CCN(Cc2nc(-c3ccc(F)cc3)c(-c3nc(C(=O)NC(C)C)cs3)o2)CC1` [Example 463], the 50% inhibitory concentration (IC50) is at most 1000 nM.

`COc1cc(OC)cc(C(=O)N2CCN(Cc3nc(-c4ccc(F)cc4)c(-c4nc(C(=O)NC(C)C)cs4)o3)CC2)c1` [Example 464]: the IC50 was above 1000 nM.

`COc1cccc(C(=O)N2CCN(Cc3nc(-c4ccc(F)cc4)c(-c4nc(C(=O)NC(C)C)cs4)o3)CC2)c1OC` [Example 465]: the IC50 was above 1000 nM.

Compound `Cc1ccc(SCC(=O)N2CCN(Cc3nc(-c4ccc(F)cc4)c(-c4nc(C(=O)NC(C)C)cs4)o3)CC2)cc1` [Example 466] displayed an IC50 above 1000 nM.

Regarding `CC(C)NC(=O)c1csc(-c2oc(CN3CCN(C(=O)/C=C/c4ccc(Cl)cc4)CC3)nc2-c2ccc(F)cc2)n1` [Example 467], the IC50 is above 1000 nM.

The compound `CC(C)NC(=O)c1csc(-c2oc(CN3CCN(C(=O)/C=C/c4ccccc4Cl)CC3)nc2-c2ccc(F)cc2)n1` [Example 468] had an IC50 above 1000 nM.

On to `CC(C)NC(=O)c1csc(-c2oc(CN3CCN(C(=O)c4ccc([N+](=O)[O-])c(O)c4)CC3)nc2-c2ccc(F)cc2)n1` [Example 469], for which the 50% inhibitory concentration (IC50) was above 1000 nM.

For `CC(C)NC(=O)c1csc(-c2oc(CN3CCN(C(=O)c4cc(O)ccc4[N+](=O)[O-])CC3)nc2-c2ccc(F)cc2)n1` [Example 470], the IC50 was above 1000 nM.

For `CC(C)NC(=O)c1csc(-c2oc(CN3CCN(C(=O)c4cc([N+](=O)[O-])ccc4O)CC3)nc2-c2ccc(F)cc2)n1` [Example 471], the IC50 is at most 1000 nM.

`CC(C)NC(=O)c1csc(-c2oc(CN3CCN(C(=O)c4cc([N+](=O)[O-])ccc4F)CC3)nc2-c2ccc(F)cc2)n1` [Example 472] registered an IC50 above 1000 nM.

With `CC(C)NC(=O)c1csc(-c2oc(CN3CCN(C(=O)c4cc(F)ccc4[N+](=O)[O-])CC3)nc2-c2ccc(F)cc2)n1` [Example 473], the half-maximal inhibitory concentration (IC50) is above 1000 nM.

Turning to `CC(C)NC(=O)c1csc(-c2oc(CN3CCN(C(=O)c4ccc(F)c([N+](=O)[O-])c4)CC3)nc2-c2ccc(F)cc2)n1` [Example 474], the IC50 was above 1000 nM.

With `COc1ccc(Cl)cc1C(=O)N1CCN(Cc2nc(-c3ccc(F)cc3)c(-c3nc(C(=O)NC(C)C)cs3)o2)CC1` [Example 475], the IC50 is above 1000 nM.

As for `COc1cc(Cl)ccc1C(=O)N1CCN(Cc2nc(-c3ccc(F)cc3)c(-c3nc(C(=O)NC(C)C)cs3)o2)CC1` [Example 476], the IC50 is above 1000 nM.

Consider `CC(C)NC(=O)c1csc(-c2oc(CN3CCN(C(=O)Cc4ccc(O)c(Cl)c4)CC3)nc2-c2ccc(F)cc2)n1` [Example 477], for which the half-inhibitory concentration (IC50) is above 1000 nM.

For `COc1cc(C(=O)N2CCN(Cc3nc(-c4ccc(F)cc4)c(-c4nc(C(=O)NC(C)C)cs4)o3)CC2)cc(Cl)n1` [Example 478], the IC50 is above 1000 nM.

Consider `CC(C)NC(=O)c1csc(-c2oc(CN3CCN(C(=O)c4ccc5cc(O)ccc5c4)CC3)nc2-c2ccc(F)cc2)n1` [Example 479], for which the IC50 was above 1000 nM.

For `CC(C)NC(=O)c1csc(-c2oc(CN3CCN(C(=O)c4c(O)ccc5ccccc45)CC3)nc2-c2ccc(F)cc2)n1` [Example 480], the IC50 is above 1000 nM.

The compound `CC(C)NC(=O)c1csc(-c2oc(CN3CCN(C(=O)c4cc5ccccc5cc4O)CC3)nc2-c2ccc(F)cc2)n1` [Example 481] came in with an IC50 above 1000 nM.

For the compound `CC(C)NC(=O)c1csc(-c2oc(CN3CCN(C(=O)c4ccc5ccccc5c4O)CC3)nc2-c2ccc(F)cc2)n1` [Example 482], the half-inhibitory concentration (IC50) is above 1000 nM.

`CC(C)NC(=O)c1csc(-c2oc(CN3CCN(C(=O)c4ccc5cccc(O)c5n4)CC3)nc2-c2ccc(F)cc2)n1` [Example 483] came in with a 50% inhibitory concentration (IC50) of at most 1000 nM.

Compound `CC(C)NC(=O)c1csc(-c2oc(CN3CCN(C(=O)C(C)NC(=O)OC(C)(C)C)CC3)nc2-c2ccc(F)cc2)n1` (stereo not drawn) [Example 484] had an IC50 above 1000 nM.

`CC(C)NC(=O)c1csc(-c2oc(CN3CCN(C(=O)C(C)NC(=O)OC(C)(C)C)CC3)nc2-c2ccc(F)cc2)n1` (stereo not drawn) [Example 485]: the IC50 is above 1000 nM.

`CC(C)NC(=O)c1csc(-c2oc(CN3CCN(C(=O)c4ccccc4C(F)(F)F)CC3)nc2-c2ccc(F)cc2)n1` [Example 486] came in with a half-inhibitory concentration (IC50) above 1000 nM.

For `CC(C)NC(=O)c1csc(-c2oc(CN3CCN(C(=O)CCc4nc5ccccc5[nH]4)CC3)nc2-c2ccc(F)cc2)n1` [Example 487], the IC50 is above 1000 nM.

Turning to `CC(C)NC(=O)c1csc(-c2oc(CN3CCN(C(=O)c4cccc(Cl)c4Cl)CC3)nc2-c2ccc(F)cc2)n1` [Example 488], the half-maximal inhibitory concentration (IC50) was above 1000 nM.

Compound `CC(C)NC(=O)c1csc(-c2oc(CN3CCN(C(=O)c4ccc(Cl)cc4Cl)CC3)nc2-c2ccc(F)cc2)n1` [Example 489] displayed a half-inhibitory concentration (IC50) above 1000 nM.

`CC(C)NC(=O)c1csc(-c2oc(CN3CCN(C(=O)c4cc(Cl)ccc4Cl)CC3)nc2-c2ccc(F)cc2)n1` [Example 490] showed an IC50 above 1000 nM.

For `CC(C)NC(=O)c1csc(-c2oc(CN3CCN(C(=O)c4cc(F)c(F)c(O)c4F)CC3)nc2-c2ccc(F)cc2)n1` [Example 491], the half-inhibitory concentration (IC50) is above 1000 nM.

The compound `CC(C)NC(=O)c1csc(-c2oc(CN3CCN(C(=O)/C=C/c4ccc5c(c4)OCO5)CC3)nc2-c2ccc(F)cc2)n1` [Example 492] showed an IC50 above 1000 nM.

In turn, `Cc1ccc(C(=O)CCC(=O)N2CCN(Cc3nc(-c4ccc(F)cc4)c(-c4nc(C(=O)NC(C)C)cs4)o3)CC2)cc1` [Example 493] yielded a half-maximal inhibitory concentration (IC50) above 1000 nM.

Take `CCCCCc1ccc(C(=O)N2CCN(Cc3nc(-c4ccc(F)cc4)c(-c4nc(C(=O)NC(C)C)cs4)o3)CC2)cc1` [Example 494]: the IC50 is above 1000 nM.

With `CC(C)NC(=O)c1csc(-c2oc(CN3CCN(C(=O)c4cc(F)c(F)cc4Cl)CC3)nc2-c2ccc(F)cc2)n1` [Example 495], the 50% inhibitory concentration (IC50) was above 1000 nM.

`CC(C)NC(=O)c1csc(-c2oc(CN3CCN(C(=O)c4cc(F)c(Cl)cc4F)CC3)nc2-c2ccc(F)cc2)n1` [Example 496] yielded a concentration for half-maximal inhibition (IC50) above 1000 nM.

Compound `CCN(CC)c1ccc(C(=O)N2CCN(Cc3nc(-c4ccc(F)cc4)c(-c4nc(C(=O)NC(C)C)cs4)o3)CC2)cc1` [Example 497] came in with an IC50 of at most 1000 nM.

In the case of `COc1cc(/C=C/C(=O)N2CCN(Cc3nc(-c4ccc(F)cc4)c(-c4nc(C(=O)NC(C)C)cs4)o3)CC2)ccc1O` [Example 498], the IC50 is at most 1000 nM.

`COc1ccc(/C=C/C(=O)N2CCN(Cc3nc(-c4ccc(F)cc4)c(-c4nc(C(=O)NC(C)C)cs4)o3)CC2)cc1O` [Example 499] came in with an IC50 of at most 1000 nM.

These data come from US20060252807A1, “Novel ortho-terphenyl inhibitors of p38 kinase and methods of treating inflammatory disorders” (Kalypsys, Inc., priority 2005, published 2006).
